Test results: patent US6569846B1, “Palladium-substituted bacteriochlorophyll derivatives and use thereof” (Yeda Research and Development Co. Ltd., priority 1998, dated 2003)

What was measured:
[1] = Stability of Pd-BPheid solutions by HPLC profile; type: physicochemical
Procedure: A reverse phase HPLC method was developed to characterize the impurity profile and quantify the Palladium-BPheid.
Solutions of Pd-BPheid stored in acetone at −20° C. were stable for at least 2-month period.

[2] = system: mouse leukemia L1210 cells; assay: Sites of photodamage (fluorescent probes); type: cell-based
Procedure: (ii) In vitro phototoxicity. For studies on phototoxicity involving L1210 and RIF cells, light was provided by a 600 watt quartz-halogen source filtered with 10 cm of water and a 850 nm cut-off filter to remove IR. The bandwidth was further confined to 660±5 nm by an interference filter (Oriel). Cells in suspension (L1210) or adhering to 24 mm diameter cover slips were incubated in growth medium (with 20 mM HEPES pH 7 replacing NaHCO3 for added buffering capacity) for 15 min in the presence of specified levels of sensitizers. The cells were then washed free from the sensitizer, and transferred to fresh media. Irradiations were carried out at 10° C. For some studies, the cells were then labeled with fluorescent probes and sites of photodamage were assessed. In other studies, the cells were then incubated for 60 min at 37° C. in fresh medium to allow apoptosis to proceed. Viability studies were carried out using 96-well plates and a 72-hour MTT assay, in quadruplicate.

[3] = system: HT29 human colon adenocarcinoma; assay: In vivo phototoxicity on grafted HT29 tumors (tumoral index); design: species or system Swiss nude mice; conditions: for tumor growth as compared to controls / duration of decrease of tumor index: 15 mg/kg i.v., 763 nm
Procedure: Animal and tumor model: Solid tumor tissue (diameter 2 cm) removed from donor mouse immediately after death was mechanically crushed in 1 ml of 0.9% saline solution and the solution (0.1 ml) was injected s.c. into one hind leg of each mouse. Mice were included for experiments when the tumor diameter was 8-10 mm. Tumors were grafted s.c. in 8-week aged Swiss nude mice 10 days before experiment.
Phototoxic studies: 0.15 ml Pd-BPheid was injected i.v. at 15 mg/kg. Mice were anesthetized with thiopental at 40 mg/kg just before irradiation. At 30 min, 1 h, 4 h or 24 h after injection, mice were irradiated with a titanium sapphire laser at 300 mW/cm^2, mean diameter were measured to adjust time irradiation to obtain 200 or 300 J/cm^2. Control mice not injected with Pd-BPheid were also irradiated in same conditions. The tumor growth delay induced by PDT was analyzed by equivalence with tests realized in experimental radiotherapy. For in vivo studies and for each separate experiment, all results were the mean of 2 or 3 separate experiments and for each separate experiment, 2 mice were used for each experimental condition.
Concerning tumoral growth studies, results are expressed as tumoral index variations with reference (=1) corresponding to tumoral index from non-treated cells. The tumoral index was calculated as follows:
Tumoral index=(largest tumoral diameter+perpendicularly opposite diameter)/2.

[4] = system: M2R mouse melanoma tumors; assay: In vivo PDT of M2R melanoma tumors; design: species or system CD1 nude mice; conditions: 2.5 mg/Kg i.v., illuminated 30 min at 300 mW cm^−2; within 24 h
Procedure: (iv) Tumor implantation: Mice were implanted with 10^6 M2R cells on the back and tumors arose to the treatment size (7-8 mm) within 2-3 weeks.
(v) Light source: Osram 150 W halogen photo-optic lamp 64643 (D. K. Keller et al 1999, Int. J. Hyperthermia 15, 467-474) equipped with λ=650-900 mn spectral window, 300 mW/cm^−2. Illumination was for 30 min.
(vi) PDT protocol: The anesthetized mouse was i.v injected with the pigment and the tumor immediately illuminated. At the end of treatment the mouse was placed back in the cage. Photographs of the tumor were taken before and at the times indicated.
Preparation of sensitizer: Two mg Pd-BPheid were dissolved in 0.25 ml cremophor EL followed by 20 min sonication. 0.075 ml 1,2-propylene glycol were added and sonication was continued for another 15 min. Then 0.9 ml of […] were added followed by 5 min sonication. The sample was centrifuged for 12 min at 13,000 rpm (Eppendorf). The final calculated concentration of Pd-BPheid based on spectrum in chloroform was 0.5 mg/ml. […]
Preparation of sensitizer: Two mg Pd-BPheid were dissolved in 0.1 ml methanol, 0.1 ml 0.1M KH2PO4, pH=8.0 and 0.9 ml PBS and sonicated for 10 min. […] The sample was centrifuged for 8 min on 13,000 rpm the final calculated concentration of Pd-BPheid based on spectrum in chloroform was 0.5 mg/ml. […]

Compound: CC[C@H]1C2=NC(=Cc3c(C(C)=O)c(C)c4[n]3[Pd][n]3c(c(C)c5c3=C(C3=NC(=C4)[C@@H](C)[C@@H]3CCC(=O)O)[C@@H](C(=O)OC)C5=O)=C2)[C@@H]1C [Pd-BPheid, Pd-bacteriopheophorbide a]
- change in the HPLC profile ([1]; stock solution at room temperature for 18 hours): no change in the HPLC profile
- period for which solutions were stable ([1]; stored in acetone at −20° C.): at least 2 month
- photodamage to the plasma membrane or to lysosomes [2]: no detectable photodamage
- site of photodamage [2]: highly specific mitochondrial photosensitizers
- tumor growth as compared to controls ([3]; 200 J/cm^2, 30 min and 4 h after injection): tumor growth decrease
- duration of decrease of tumor index ([3]; 200 J/cm^2, 1 h and 24 h after injection): up to 7 days
- tumor growth as compared to controls ([3]; 300 J/cm^2, 30 min and 24 h after injection): tumor growth decrease
- duration of decrease of tumor index ([3]; 300 J/cm^2, 1 h and 4 h after injection): up to 7 days
- wavelength of maximum tumor growth decrease ([3]; 300 J/cm^2, 1 h after injection): 763 nm
- duration of tumor growth decrease as compared to controls ([3]; 300 J/cm^2, 1 h after injection, 753 nm and 763 nm): up to 12 days
- duration of tumor growth decrease as compared to controls ([3]; 300 J/cm^2, 1 h after injection, 773 nm): up to 5 days
- wavelength of maximum tumor growth decrease ([3]; 300 J/cm^2, 24 h after injection): 773 nm
- duration of tumor growth decrease as compared to controls ([3]; 300 J/cm^2, 24 h after injection, 753 nm): up to 4 days
- duration of tumor growth decrease as compared to controls ([3]; 300 J/cm^2, 24 h after injection, 763 nm and 773 nm): up to 12 days
- most efficient delay between injection and illumination ([3]; 773 nm wavelength): 24 h
- most efficient delay between injection and illumination ([3]; at 764 nm): one hour
- optimal wavelength of irradiation ([3]; summary of the study): 773 nm
- tumor response to PDT [4]: severe inflammatory response with necrosis of the tumor
